We go through twelve molecules from EP0209275B1, “Benz-trisubstituted 2-aminotetralins” (SMITHKLINE BECKMAN CORPORATION, priority 1985, dated 1987).

Like-named read-outs stand apart in the source and are kept apart here.

One experiment concerns rabbit ear artery. Put plainly: Standard rabbit ear artery protocol for pre-junctional dopaminergic activity. The note with it: ED50 for Compound D.
A further experiment deals with T1, D1 receptors (Rattus norvegicus, UniProt P18901).
T1 construct: homogenized and washed membrane preparations from rat caudate nuclei; from tissue; host or cells: rat caudate nuclei (striatum) membranes
Put plainly: D1 activity - competition for 3H-fenoldopam binding in rat striatum (caudate) membranes. As to the method: B) D1 Activity - Competition for ^3H-Fenoldopam in Rat Striatum Tissue. Test Procedure
The assay was performed using homogenized and washed membrane preparations from rat caudate nuclei. Tissues were preincubated for 15 min at 37° in 50 mM Tris-HCI, pH 7.4, 10 mM magnesium sulfate, 2 mM ethylenediamine tetra-acetic acid and 0.1 % ascorbate. The binding assay was then carried out in the above buffer also containing 10 µm pargyline, ^3H-fenoldopam and test compounds. The membrane- bound radioactivity was trapped by rapid filtration over glass fiber (GF/C) filters. In each experiment the amount of ^3H-fenoldopam bound was determined in the absence (total) and presence (non-specific) of 10^-6M (+)-butaclamol, the difference yielding specific ^3H-fenoldopam binding. The ability of each compound to compete with ^3H-fenoldopam (approximately 2.0 nM) was tested at concentrations of 10-^7 and 10^-6M.

In a further experiment the target is T2, D2 receptors (Bos taurus, UniProt P20288).
T2 construct: homogenized and washed membrane preparations from bovine anterior pituitary; from tissue; host or cells: bovine anterior pituitary membranes
Put plainly: D2 activity - competition for 3H-spiroperidol binding in bovine anterior pituitary membranes. The note with it: for Kb: competition with 3H-spiroperidol (approximately .25 nM), bovine anterior pituitary membranes, figure in parentheses = number of tests, read-out: D2 (KBind, KB); for D2 to D1 ratios: selectivity ratio from the D1 and D2 binding data of Tables I and II, n to 1 = D2 selective, 1 to n = D1 selective. As to the method:
A) D2 Activity - Competition for ^3H-Spiroperidol in Bovine Anterior Pituitary Tissue. Test Procedure
The assay was performed using homogenized and washed membrane preparations from bovine anterior pituitary. Incubation proceeded for 20 minutes at 37° in 50 mM Tris-HCI, pH 7.4, containing 10 mM magnesium sulfate, 2 mM ethylenediamine tetra-acetic acid and 0.1 % ascorbate. The membrane- bound radioactivity was trapped by rapid filtration over glass fiber (GF/C) filters. In each experiment, the amount of ^3H-spiroperidol bound was determined in the absence (total) and presence (non-specific) of 10^-6M (+)-butaclamol, the difference yielding specific ^3H-spiroperidol binding. The ability of each compound to compete with ^3H-spiroperidol (approximately .25 nM) was tested at concentrations of 10-^7 and 10-^5.

The next experiment relates to a2. Put plainly: Clonidine binding protocol (a2 activity).
Experiment [1] deals with spontaneous hypertensive rat. Put plainly: Natriuretic activity in the spontaneous hypertensive rat protocol. The format is in vivo. The note with it: at a hypotensive dose (Compound G: 3.12 mg/kg i.p.).
Setting [2] is: competition with 3H-fenoldopam (approximately 2.0 nM), rat caudate membranes, figure in parentheses = number of tests, read-out: D1 (KBind, KB).

T1 sequence (P18901 whole entry): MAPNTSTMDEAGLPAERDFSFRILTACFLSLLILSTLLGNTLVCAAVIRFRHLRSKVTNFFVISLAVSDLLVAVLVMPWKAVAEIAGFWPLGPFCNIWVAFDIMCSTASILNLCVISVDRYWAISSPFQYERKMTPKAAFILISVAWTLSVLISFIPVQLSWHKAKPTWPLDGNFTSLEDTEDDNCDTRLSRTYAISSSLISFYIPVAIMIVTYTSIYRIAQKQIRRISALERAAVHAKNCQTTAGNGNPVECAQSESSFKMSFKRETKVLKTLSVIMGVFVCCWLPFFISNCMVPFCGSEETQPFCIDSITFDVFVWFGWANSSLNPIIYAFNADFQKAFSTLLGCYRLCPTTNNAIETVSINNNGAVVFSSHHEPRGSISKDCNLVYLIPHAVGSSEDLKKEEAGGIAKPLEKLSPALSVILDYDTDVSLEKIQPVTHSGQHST
T2 sequence (P20288 whole entry): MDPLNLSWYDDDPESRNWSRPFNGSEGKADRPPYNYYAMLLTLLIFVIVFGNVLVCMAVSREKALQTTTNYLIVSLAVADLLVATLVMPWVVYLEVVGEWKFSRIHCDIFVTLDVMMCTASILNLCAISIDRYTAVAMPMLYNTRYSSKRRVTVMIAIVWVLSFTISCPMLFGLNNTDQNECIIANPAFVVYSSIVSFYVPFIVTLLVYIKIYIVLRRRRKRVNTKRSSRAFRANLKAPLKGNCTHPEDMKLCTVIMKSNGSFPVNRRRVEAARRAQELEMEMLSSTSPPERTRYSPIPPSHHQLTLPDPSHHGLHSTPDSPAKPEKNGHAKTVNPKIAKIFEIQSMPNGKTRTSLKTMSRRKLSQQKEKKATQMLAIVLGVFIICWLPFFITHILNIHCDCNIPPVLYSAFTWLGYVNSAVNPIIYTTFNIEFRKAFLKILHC

In the experiment with rabbit ear artery, `NC1CCc2c(cc(O)c(O)c2F)C1` (stereo not shown) [Compound D, 5-Fluoro-6,7-dihydroxy-2-aminotetralin] had a 50% effective concentration (EC50) of 2.14 nM. The Kb at D1 receptors (setting [2]) was 72 nM. Also, at D2 receptors, the Kb was determined as 520 nM and the “D2 to D1 ratios” value is recorded as 1 to 7. Besides, the a2 activity result with a2 was “demonstrated a2 activity”.

Take `NC1CCc2cc(O)c(O)c(Cl)c2C1` (stereo not shown) [Compound G, 8-Chloro-6,7-dihydroxy-2-aminotetralin]: the natriuretic activity result in experiment [1] is given as “potent natriuretic activity”. Also, the 50% effective concentration (EC50) in the experiment on rabbit ear artery worked out at 513 nM. In addition, the Kb on D1 receptors is 43 nM. For the same molecule, at D2 receptors, the Kb was found to be 3160 nM and the “D2 to D1 ratios” value is 1 to 80. For the same molecule, in the experiment on a2, the a2 activity entry is “demonstrated a2 activity”.

In the case of `CCCN(CCC)C1CCc2cc(O)c(O)c(Cl)c2C1` (stereo not shown) [C, 8-Chloro-6,7-dihydroxy-2-di-n-propyl aminotetralin], the Kb turned out to be 620 nM on D1 receptors (setting [2]) and 240 nM at D2 receptors.

The molecule `NC1CCc2c(cc(O)c(O)c2Cl)C1` (stereo not shown) [Compound F, 5-Chloro-6,7-dihydroxy-2-aminotetralin] showed an EC50 with rabbit ear artery of 50 nM. In addition, the Kb stood at 640 nM on D1 receptors (setting [2]) and 470 nM at D2 receptors. Further, in the experiment on a2, the a2 activity entry is given as “demonstrated a2 activity”.

Consider `NC1CCc2cc(O)c(Cl)cc2C1` (stereo not shown) [N, reference compound], for which the Kb was found to be 1970 nM on D1 receptors (setting [2]) and 4470 nM on D2 receptors.

Take `CCCN(CCc1ccc(O)cc1)C1CCc2cc(O)c(O)c(Cl)c2C1` (stereo not shown) [A, 8-Chloro-6,7-dihydroxy-2-[N-(n-propyl)-N-(4-hydroxyphenethyl)-amino] tetralin]: the Kb is 270 nM at D1 receptors (setting [2]) and 33 nM on D2 receptors.

As to `NC1CCc2c(ccc(O)c2Cl)C1` (stereo not shown) [O, reference compound], the Kb on D1 receptors (setting [2]) was over 10000 nM; at D2 receptors, 11600 nM.

With `NC1CCc2cc(O)c(O)cc2C1` (stereo not shown) [ADTN, 6,7-Dihydroxy-2-aminotetralin, reference compound], the natriuretic activity result in experiment [1] was “inactive”. Moreover, the “D2 to D1 ratios” value on D2 receptors lay within 1 to 3. Besides, the a2 activity entry with a2 is recorded as “demonstrated a2 activity”.

For `NC1CCc2cc(F)c(O)cc2C1` (stereo not shown) [L, reference compound], the Kb on D1 receptors (setting [2]) amounted to 370 nM; at D2 receptors, 660 nM.

For `CCCN(CCC)C1CCc2cc(Cl)c(O)cc2C1` (stereo not shown) [M, reference compound], the figures for the Kb on D1 receptors (setting [2]) and at D2 receptors were 4710 nM and 1630 nM, respectively.

With `Oc1ccc(CCNC2CCc3cc(O)c(O)c(Cl)c3C2)cc1` (stereo not shown) [B, 8-Chloro-6,7-dihydroxy-2-(4-hydroxyphenethylamino)tetralin], the Kb on D1 receptors (setting [2]) was 1450 nM; at D2 receptors, 405 nM.

Regarding `NC1CCc2cc(O)c(O)c(F)c2C1` (stereo not shown) [Compound E, 8-Fluoro-6,7-dihydroxy-2-aminotetralin], in the experiment with rabbit ear artery, the EC50 was found to be 5 nM. The Kb on D1 receptors (setting [2]) was determined as 62 nM. For the same molecule, on D2 receptors, the Kb was 1270 nM and the “D2 to D1 ratios” value is 1 to 27. Also, the a2 activity result with a2 is “demonstrated a2 activity”.

One may read the EC50 as the concentration giving half of the maximal effect. Read a low EC50 as a more potent agent.
